# In the NIST ThermoML archive (doi:10.1016/j.jct.2005.03.016):
# Numbers after ± are expanded uncertainties.
# Assay: xn = mol fraction of the nth substance listed
# Details: Liquid, Vibrating tube method, x1 = 1
compound,measurement,setting,value
CCO [ethanol] + CC1CCCCC1,mass density,"283.15 K, 100 kPa",798 ± 0.2 kg/m3
same,mass density,"283.15 K, 5000 kPa",802 ± 0.2 kg/m3
same,mass density,"283.15 K, 10000 kPa",805.9 ± 0.2 kg/m3
same,mass density,"283.15 K, 15000 kPa",809.5 ± 0.3 kg/m3
same,mass density,"283.15 K, 20000 kPa",813 ± 0.3 kg/m3
same,mass density,"283.15 K, 25000 kPa",816.4 ± 0.4 kg/m3
same,mass density,"283.15 K, 30000 kPa",819.7 ± 0.4 kg/m3
same,mass density,"283.15 K, 35000 kPa",822.8 ± 0.4 kg/m3
same,mass density,"283.15 K, 40000 kPa",825.9 ± 0.5 kg/m3
same,mass density,"283.15 K, 45000 kPa",828.8 ± 0.5 kg/m3
same,mass density,"293.15 K, 100 kPa",789.5 ± 0.2 kg/m3
same,mass density,"293.15 K, 5000 kPa",793.7 ± 0.2 kg/m3
same,mass density,"293.15 K, 10000 kPa",797.8 ± 0.3 kg/m3
same,mass density,"293.15 K, 15000 kPa",801.6 ± 0.3 kg/m3
same,mass density,"293.15 K, 20000 kPa",805.3 ± 0.3 kg/m3
same,mass density,"293.15 K, 25000 kPa",808.9 ± 0.4 kg/m3
same,mass density,"293.15 K, 30000 kPa",812.3 ± 0.4 kg/m3
same,mass density,"293.15 K, 35000 kPa",815.6 ± 0.5 kg/m3
same,mass density,"293.15 K, 40000 kPa",818.7 ± 0.5 kg/m3
same,mass density,"293.15 K, 45000 kPa",821.8 ± 0.5 kg/m3
same,mass density,"303.15 K, 100 kPa",780.9 ± 0.2 kg/m3
same,mass density,"303.15 K, 5000 kPa",785.3 ± 0.2 kg/m3
same,mass density,"303.15 K, 10000 kPa",789.6 ± 0.3 kg/m3
same,mass density,"303.15 K, 15000 kPa",793.7 ± 0.3 kg/m3
same,mass density,"303.15 K, 20000 kPa",797.5 ± 0.4 kg/m3
same,mass density,"303.15 K, 25000 kPa",801.3 ± 0.4 kg/m3
same,mass density,"303.15 K, 30000 kPa",804.8 ± 0.4 kg/m3
same,mass density,"303.15 K, 35000 kPa",808.2 ± 0.5 kg/m3
same,mass density,"303.15 K, 40000 kPa",811.5 ± 0.5 kg/m3
same,mass density,"303.15 K, 45000 kPa",814.7 ± 0.6 kg/m3
same,mass density,"313.15 K, 100 kPa",772.1 ± 0.2 kg/m3
same,mass density,"313.15 K, 5000 kPa",776.8 ± 0.2 kg/m3
same,mass density,"313.15 K, 10000 kPa",781.3 ± 0.3 kg/m3
same,mass density,"313.15 K, 15000 kPa",785.6 ± 0.3 kg/m3
same,mass density,"313.15 K, 20000 kPa",789.6 ± 0.4 kg/m3
same,mass density,"313.15 K, 25000 kPa",793.5 ± 0.4 kg/m3
same,mass density,"313.15 K, 30000 kPa",797.2 ± 0.5 kg/m3
same,mass density,"313.15 K, 35000 kPa",800.8 ± 0.5 kg/m3
same,mass density,"313.15 K, 40000 kPa",804.2 ± 0.5 kg/m3
same,mass density,"313.15 K, 45000 kPa",807.6 ± 0.6 kg/m3
same,mass density,"323.15 K, 100 kPa",763.3 ± 0.2 kg/m3
same,mass density,"323.15 K, 5000 kPa",768.3 ± 0.2 kg/m3
same,mass density,"323.15 K, 10000 kPa",773 ± 0.3 kg/m3
same,mass density,"323.15 K, 15000 kPa",777.6 ± 0.3 kg/m3
same,mass density,"323.15 K, 20000 kPa",781.8 ± 0.4 kg/m3
same,mass density,"323.15 K, 25000 kPa",785.9 ± 0.4 kg/m3
same,mass density,"323.15 K, 30000 kPa",789.7 ± 0.5 kg/m3
same,mass density,"323.15 K, 35000 kPa",793.5 ± 0.5 kg/m3
same,mass density,"323.15 K, 40000 kPa",797.1 ± 0.6 kg/m3
same,mass density,"323.15 K, 45000 kPa",800.5 ± 0.6 kg/m3
same,mass density,"333.15 K, 100 kPa",754 ± 0.2 kg/m3
same,mass density,"333.15 K, 5000 kPa",759.3 ± 0.2 kg/m3
same,mass density,"333.15 K, 10000 kPa",764.3 ± 0.3 kg/m3
same,mass density,"333.15 K, 15000 kPa",769.1 ± 0.3 kg/m3
same,mass density,"333.15 K, 20000 kPa",773.6 ± 0.4 kg/m3
same,mass density,"333.15 K, 25000 kPa",777.8 ± 0.4 kg/m3
same,mass density,"333.15 K, 30000 kPa",781.9 ± 0.5 kg/m3
same,mass density,"333.15 K, 35000 kPa",785.8 ± 0.5 kg/m3
same,mass density,"333.15 K, 40000 kPa",789.5 ± 0.6 kg/m3
same,mass density,"333.15 K, 45000 kPa",793.1 ± 0.6 kg/m3
same,mass density,"343.15 K, 100 kPa",744.5 ± 0.2 kg/m3
same,mass density,"343.15 K, 5000 kPa",750.1 ± 0.2 kg/m3
same,mass density,"343.15 K, 10000 kPa",755.5 ± 0.3 kg/m3
same,mass density,"343.15 K, 15000 kPa",760.5 ± 0.3 kg/m3
same,mass density,"343.15 K, 20000 kPa",765.3 ± 0.4 kg/m3
same,mass density,"343.15 K, 25000 kPa",769.8 ± 0.5 kg/m3
same,mass density,"343.15 K, 30000 kPa",774 ± 0.5 kg/m3
same,mass density,"343.15 K, 35000 kPa",778.1 ± 0.5 kg/m3
same,mass density,"343.15 K, 40000 kPa",782 ± 0.6 kg/m3
same,mass density,"343.15 K, 45000 kPa",785.7 ± 0.6 kg/m3
same,mass density,"353.15 K, 5000 kPa",740.6 ± 0.2 kg/m3
same,mass density,"353.15 K, 10000 kPa",746.4 ± 0.3 kg/m3
same,mass density,"353.15 K, 15000 kPa",751.7 ± 0.4 kg/m3
same,mass density,"353.15 K, 20000 kPa",756.7 ± 0.4 kg/m3
same,mass density,"353.15 K, 25000 kPa",761.5 ± 0.5 kg/m3
same,mass density,"353.15 K, 30000 kPa",766 ± 0.5 kg/m3
same,mass density,"353.15 K, 35000 kPa",770.2 ± 0.6 kg/m3
same,mass density,"353.15 K, 40000 kPa",774.3 ± 0.6 kg/m3
same,mass density,"353.15 K, 45000 kPa",778.2 ± 0.7 kg/m3
